From PubChem BioAssay AID1845205 (Molecular Pharmacology Branch, DTP, NCI, 2023)

Tested on: MPNST multicellular tumor spheroids, viability % test/control
Assay: Anticancer human tumor MPNST cell line growth inhibition;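 note: spheroids exposed to agents for seven days after three days of growth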;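 for viability, T/C: luminescence signal used as surrogate for viable cell amount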
Settings: for IC50: curve of first compound; for viability, T/C: stronger effect = lower value
How it was run: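 Complex tumor spheroids combined malignant cells with endothelial cells and mesenchymal stem cells. DNA-damaging drugs and DNA repair inhibitors were tested alone and in combination, at half-log dilutions down from clinical Cmax (top 10 microM if Cmax unknown), 0.25% DMSO final.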

CNCc1ccc(-c2cc(-c3nc(-c4ccc(S(=O)(=O)C(C)C)cc4)cnc3N)on2)cc1 + Cn1nnc2c(C(N)=O)ncn2c1=O
IC50 (second compound 1 µM): > 3 µM | IC50 (second compound 3.16 µM): > 3 µM | IC50 (second compound 10 µM): > 3 µM | IC50 (second compound 31.6 µM): > 3 µM | IC50 (second compound 100 µM): > 3 µM | viability, T/C (second compound 1 µM, first compound 0.00949 µM): 110% | viability, T/C (second compound 1 µM, first compound 0.03 µM): 102% | viability, T/C (second compound 1 µM, first compound 0.0949 µM): 83% | viability, T/C (second compound 1 µM, first compound 0.3 µM): 77.9% | viability, T/C (second compound 1 µM, first compound 0.949 µM): 63.1% | viability, T/C (second compound 1 µM, first compound 3 µM): 63.8% | viability, T/C (second compound 3.16 µM, first compound 0.00949 µM): 125% | viability, T/C (second compound 3.16 µM, first compound 0.03 µM): 120% | viability, T/C (second compound 3.16 µM, first compound 0.0949 µM): 97.9% | viability, T/C (second compound 3.16 µM, first compound 0.3 µM): 75.3% | viability, T/C (second compound 3.16 µM, first compound 0.949 µM): 64.8% | viability, T/C (second compound 3.16 µM, first compound 3 µM): 61.1% | viability, T/C (second compound 10 µM, first compound 0.00949 µM): 95.6% | viability, T/C (second compound 10 µM, first compound 0.03 µM): 114% | viability, T/C (second compound 10 µM, first compound 0.0949 µM): 98.5% | viability, T/C (second compound 10 µM, first compound 0.3 µM): 74.8% | viability, T/C (second compound 10 µM, first compound 0.949 µM): 71.8% | viability, T/C (second compound 10 µM, first compound 3 µM): 69.5% | viability, T/C (second compound 31.6 µM, first compound 0.00949 µM): 105% | viability, T/C (second compound 31.6 µM, first compound 0.03 µM): 81.1% | viability, T/C (second compound 31.6 µM, first compound 0.0949 µM): 79.8% | viability, T/C (second compound 31.6 µM, first compound 0.3 µM): 66.6% | viability, T/C (second compound 31.6 µM, first compound 0.949 µM): 58% | viability, T/C (second compound 31.6 µM, first compound 3 µM): 64.3% | viability, T/C (second compound 100 µM, first compound 0.00949 µM): 92.1% | viability, T/C (second compound 100 µM, first compound 0.03 µM): 95.7% | viability, T/C (second compound 100 µM, first compound 0.0949 µM): 83% | viability, T/C (second compound 100 µM, first compound 0.3 µM): 61.4% | viability, T/C (second compound 100 µM, first compound 0.949 µM): 58.5% | viability, T/C (second compound 100 µM, first compound 3 µM): 61.7%

CC(C)n1c(=O)n(C)c2cnc3cc(F)c(-c4ccc(OCCCN5CCCCC5)nc4)cc3c21 + Cn1nnc2c(C(N)=O)ncn2c1=O
IC50 (second compound 1 µM): > 10 µM | IC50 (second compound 3.16 µM): > 10 µM | IC50 (second compound 10 µM): > 10 µM | IC50 (second compound 31.6 µM): > 10 µM | IC50 (second compound 100 µM): > 10 µM | viability, T/C (second compound 1 µM, first compound 0.0316 µM): 87.4% | viability, T/C (second compound 1 µM, first compound 0.1 µM): 83.7% | viability, T/C (second compound 1 µM, first compound 0.316 µM): 82.6% | viability, T/C (second compound 1 µM, first compound 1 µM): 77.9% | viability, T/C (second compound 1 µM, first compound 3.16 µM): 79.4% | viability, T/C (second compound 1 µM, first compound 10 µM): 61.9% | viability, T/C (second compound 3.16 µM, first compound 0.0316 µM): 84.6% | viability, T/C (second compound 3.16 µM, first compound 0.1 µM): 82.9% | viability, T/C (second compound 3.16 µM, first compound 0.316 µM): 92.5% | viability, T/C (second compound 3.16 µM, first compound 1 µM): 99% | viability, T/C (second compound 3.16 µM, first compound 3.16 µM): 84.9% | viability, T/C (second compound 3.16 µM, first compound 10 µM): 65.2% | viability, T/C (second compound 10 µM, first compound 0.0316 µM): 76.6% | viability, T/C (second compound 10 µM, first compound 0.1 µM): 92.4% | viability, T/C (second compound 10 µM, first compound 0.316 µM): 82.4% | viability, T/C (second compound 10 µM, first compound 1 µM): 74.8% | viability, T/C (second compound 10 µM, first compound 3.16 µM): 77.7% | viability, T/C (second compound 10 µM, first compound 10 µM): 72.1% | viability, T/C (second compound 31.6 µM, first compound 0.0316 µM): 88.2% | viability, T/C (second compound 31.6 µM, first compound 0.1 µM): 89% | viability, T/C (second compound 31.6 µM, first compound 0.316 µM): 68.6% | viability, T/C (second compound 31.6 µM, first compound 1 µM): 81.8% | viability, T/C (second compound 31.6 µM, first compound 3.16 µM): 83.7% | viability, T/C (second compound 31.6 µM, first compound 10 µM): 68.8% | viability, T/C (second compound 100 µM, first compound 0.0316 µM): 76.8% | viability, T/C (second compound 100 µM, first compound 0.1 µM): 71.8% | viability, T/C (second compound 100 µM, first compound 0.316 µM): 74.2% | viability, T/C (second compound 100 µM, first compound 1 µM): 71.2% | viability, T/C (second compound 100 µM, first compound 3.16 µM): 91% | viability, T/C (second compound 100 µM, first compound 10 µM): 67.2%
